Here are results for 20 molecules from PubChem BioAssay (NCI).

Among the test systems are DMS 114 small cell lung; HCT-15 colon; HT29 colon; KM20L2 colon; LXFL 529 NSCLC; RXF 393 renal; SK-OV-3 ovarian; SNB-78 CNS; UACC-62 melanoma; A498 renal; DLD-1 colon; M19-MEL melanoma.
What all share (experiment): NCI tumour cell line growth inhibition, 48 h

The structures appear in SMILES notation. Several values for one entry are separate records, joined by “and”; a condition that tells them apart may be missing. Equal values may be shown once.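 The compound was tested at five concentrations on cells cultured in 96-well plates, with a 48-hour exposure period. GI50: concentration for 50% inhibition of growth. The concentration for full growth arrest is given as TGI.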

For the molecule `COC1OC(COCc2ccc(Cl)cc2)C(OCc2ccc(Cl)cc2)C1N=[N+]=[N-]` (centres undefined), the TGI in the test with DMS 114 small cell lung, in the test with HCT-15 colon, in the test on HT29 colon, in the test with KM20L2 colon, in the test on LXFL 529 NSCLC and in the test on RXF 393 renal was over 100 µM throughout. Moreover, the TGI in the test on SK-OV-3 ovarian was over 100 µM; in the test on SNB-78 CNS, over 100 µM; with UACC-62 melanoma, 75.7 µM.

For the molecule `O=CC[C@H]1CCc2ccccc2C12CCC(=O)CC2`, the TGI in the test on A498 renal, in the test with DLD-1 colon, in the test with DMS 114 small cell lung, with HCT-15 colon, in the test on HT29 colon and with KM20L2 colon was over 100 µM in each case. Further, the TGI with LXFL 529 NSCLC, in the test on M19-MEL melanoma, in the test on SK-OV-3 ovarian and with UACC-62 melanoma was over 100 µM throughout.

Regarding `O=C(/C=C/c1cc([N+](=O)[O-])ccc1Cl)c1ccccc1`, the GI50 in the test with A498 renal is 12.8 µM; in the test with HCT-15 colon, 8 µM; with HT29 colon it was 3.36 µM; with RXF 393 renal, 14.7 µM; in the test on SK-OV-3 ovarian it was 39 µM; in the test on UACC-62 melanoma, 13.8 µM. Moreover, the TGI with A498 renal is 26.9 µM; in the test with HCT-15 colon it was 88.2 µM; in the test with HT29 colon, 19.4 µM; in the test with RXF 393 renal it was 28.1 µM; in the test with SK-OV-3 ovarian, over 100 µM; in the test with UACC-62 melanoma, 32.3 µM.

In the case of `COc1cc(O)c(C(=O)/C=C/c2ccc(O)cc2)c(O)c1[C@@H]1C[C@H](CCc2ccc(O)cc2)O[C@H](c2ccc(O)cc2)C1`, the GI50 in the test with A498 renal was 14 µM; in the test on HCT-15 colon, 3.43 µM; in the test with HT29 colon, 3.66 µM; in the test on RXF 393 renal, 3.1 µM; in the test with SK-OV-3 ovarian it was 2.82 µM; in the test on UACC-62 melanoma, 3.38 µM. For the same molecule, the TGI was found to be 28.1 µM with A498 renal; 11.9 µM in the test on HCT-15 colon; 11.2 µM with HT29 colon; 9.07 µM in the test with RXF 393 renal; 7.65 µM in the test with SK-OV-3 ovarian; 12.9 µM in the test with UACC-62 melanoma.

Take `N#CSCC1CC(O)(c2ccccc2)CC(c2ccc(F)cc2)O1` (centres undefined): the GI50 with A498 renal is 1.9 µM; in the test on HCT-15 colon, 1.76 µM; in the test on HT29 colon it was 1.97 µM; with RXF 393 renal, 1.72 µM; in the test with SK-OV-3 ovarian, 4.67 µM; with UACC-62 melanoma, 2.14 µM. For the same molecule, the TGI was found to be 4.1 µM with A498 renal; 4.89 µM in the test on HCT-15 colon; 4.19 µM in the test with HT29 colon; 3.47 µM with RXF 393 renal; 15.7 µM in the test with SK-OV-3 ovarian; 6.12 µM in the test with UACC-62 melanoma.

Take `Clc1ccc(C2SCc3nc4ccccc4n32)cc1Cl` (centres undefined): the TGI is 25.2 µM with DLD-1 colon; 36 µM with DMS 114 small cell lung; 28.4 µM with HCT-15 colon; 29.9 µM in the test on HT29 colon; 24 µM in the test with LXFL 529 NSCLC; 15.7 µM in the test on RXF 393 renal. In addition, the TGI with SK-OV-3 ovarian is 36.2 µM; in the test on SNB-78 CNS, 29.1 µM; with UACC-62 melanoma, 27.1 µM.

Turning to `NC(=O)c1ccc2nc(-c3ccc(Oc4ccc(Cl)cc4)cc3)[nH]c2c1`, the GI50 was 21.2 µM and 15.7 µM in the test on A498 renal; 23.6 µM and 12.6 µM with HCT-15 colon; 21.6 µM and 12.3 µM in the test with HT29 colon; 48.9 µM and 14.9 µM in the test with RXF 393 renal; 17.7 µM and 23.1 µM in the test on SK-OV-3 ovarian; 75 µM and 16.4 µM in the test on UACC-62 melanoma. Also, the TGI in the test with A498 renal was 75 µM and 30.1 µM; in the test on HCT-15 colon, 75 µM and 31 µM; in the test on HT29 colon it was 75 µM and 28.1 µM; in the test on RXF 393 renal, 75 µM and 30.2 µM; in the test with SK-OV-3 ovarian it was 75 µM and 48.2 µM; with UACC-62 melanoma it was 75 µM and 30.7 µM.

Regarding `c1csc(-c2cc(-c3cccs3)c(-c3cccs3)s2)c1`, the TGI in the test on A498 renal, with HCT-15 colon, in the test on HT29 colon, in the test on RXF 393 renal, in the test on SK-OV-3 ovarian and with UACC-62 melanoma was over 100 µM in each case.

`COc1ccc2c(c1)n([O-])c1ccccc1[n+]2=O`: the GI50 was 82.6 µM and 18.3 µM in the test on A498 renal; 25 µM and 10.3 µM with RXF 393 renal. The TGI in the test with A498 renal is > 100 µM and 60.4 µM; with HCT-15 colon it was > 100 µM and 37.3 µM; in the test on HT29 colon it was over 100 µM; in the test on RXF 393 renal, 81.2 µM and 34.8 µM; in the test with SK-OV-3 ovarian it was 94.8 µM; in the test with UACC-62 melanoma it was > 100 µM and 65 µM.

For `COc1cc(OC)c(/C=C/c2cnc3ccccc3n2)c(OC)c1`, the TGI in the test on A498 renal, in the test on HCT-15 colon, with HT29 colon, with RXF 393 renal, in the test on SK-OV-3 ovarian and in the test on UACC-62 melanoma was over 10 µM in each case.

Turning to `COc1ccc(/C(C#N)=C/c2ccc(OC)c(OC)c2)cc1`, the TGI with A498 renal, in the test with HCT-15 colon, with HT29 colon, in the test on RXF 393 renal, with SK-OV-3 ovarian and in the test with UACC-62 melanoma was over 100 µM throughout.

For the molecule `Nc1nc(-c2ccccc2)nc(N)c1N=O`, the GI50 in the test with A498 renal was 15.6 µM; in the test on HCT-15 colon, 3.03 µM; in the test with HT29 colon it was 2.88 µM; with RXF 393 renal, 2.07 µM; in the test on SK-OV-3 ovarian, 11.9 µM; in the test on UACC-62 melanoma, 3.6 µM. Moreover, the TGI in the test on A498 renal came out at 30.6 µM; in the test on HCT-15 colon, 11.1 µM; in the test on HT29 colon, 10.3 µM; in the test on RXF 393 renal, 7.07 µM; in the test with SK-OV-3 ovarian, 26 µM; with UACC-62 melanoma, 14 µM.

In the case of `Cc1cc(Cl)ccc1NC(=O)c1cc2ccccc2cc1O`, the GI50 was 0.22 µM in the test with A498 renal; 0.641 µM in the test on HCT-15 colon; 12.3 µM in the test with HT29 colon; 1.18 µM in the test on RXF 393 renal; 2.11 µM with SK-OV-3 ovarian; 0.354 µM with UACC-62 melanoma. The TGI in the test with A498 renal was 1.4 µM; in the test with HCT-15 colon it was over 100 µM; with HT29 colon, over 100 µM; in the test on RXF 393 renal, 8.6 µM; with SK-OV-3 ovarian, over 100 µM; in the test on UACC-62 melanoma, over 100 µM.

As to `NC(=O)c1cc(-c2ccc(F)cc2)cc(-c2ccncc2)c1N`, the GI50 with A498 renal was 4.17 µM; with HCT-15 colon, over 25 µM; in the test with HT29 colon it was over 25 µM; in the test on RXF 393 renal it was over 18.6 µM; in the test on SK-OV-3 ovarian, over 25 µM; in the test with UACC-62 melanoma, over 25 µM. In addition, the TGI was over 23.6 µM in the test on A498 renal; over 25 µM with HCT-15 colon; over 25 µM in the test on HT29 colon; over 25 µM with RXF 393 renal; over 25 µM in the test with SK-OV-3 ovarian; over 25 µM in the test on UACC-62 melanoma.

As for `COc1ccc(OC)c(/C=C(/C)[N+](=O)[O-])c1`, the GI50 in the test on A498 renal is 8.24 µM; in the test with HCT-15 colon it was 1.74 µM; with HT29 colon, 2.56 µM; with RXF 393 renal, 1.72 µM; with SK-OV-3 ovarian it was 6.41 µM; in the test with UACC-62 melanoma, 2.06 µM. For the same molecule, the TGI in the test with A498 renal turned out to be 20.9 µM; in the test with HCT-15 colon, 3.68 µM; with HT29 colon it was 5.2 µM; in the test on RXF 393 renal, 3.18 µM; with SK-OV-3 ovarian, 19 µM; in the test on UACC-62 melanoma, 4.54 µM.

Consider `COc1ccc(-c2nc3ccccn3c2/C=C/C(=O)c2cc(OC)c(OC)c(OC)c2)cc1`, for which the GI50 in the test with A498 renal is 10.4 µM; with HCT-15 colon it was 4.85 µM; in the test on HT29 colon it was 4.8 µM; with RXF 393 renal, 2.94 µM; in the test with SK-OV-3 ovarian, 14.8 µM; in the test on UACC-62 melanoma, 5.58 µM. For the same molecule, the TGI in the test with A498 renal was 43.9 µM; in the test with HCT-15 colon, over 100 µM; in the test on HT29 colon, 32.4 µM; in the test on RXF 393 renal it was over 100 µM; in the test on SK-OV-3 ovarian it was over 100 µM; in the test on UACC-62 melanoma, over 100 µM.

For `CC(=O)O[C@]1(C(C)=O)CC[C@H]2[C@@H]3C=C(C)C4=CC(=O)CC[C@]4(C)[C@H]3CC[C@@]21C`, the GI50 is over 75.7 µM in the test with A498 renal; over 100 µM in the test on HCT-15 colon; over 100 µM in the test on HT29 colon; 57.5 µM with RXF 393 renal; over 91.9 µM in the test on SK-OV-3 ovarian; over 71.8 µM in the test on UACC-62 melanoma. Further, the TGI in the test with A498 renal, in the test with HCT-15 colon, in the test on HT29 colon, in the test with RXF 393 renal, in the test on SK-OV-3 ovarian and with UACC-62 melanoma was over 100 µM in each case.

`COc1cc2c3c(n(CCCI)c(=O)c2cc1OC)-c1cc2c(cc1C3=O)OCO2`: the GI50 in the test with A498 renal was 6.79 µM; in the test on HCT-15 colon, 0.475 µM; in the test with HT29 colon, 5.46 µM; in the test with RXF 393 renal, 6.81 µM; with SK-OV-3 ovarian, over 100 µM; in the test on UACC-62 melanoma, 0.202 µM. The TGI in the test on A498 renal was over 100 µM; in the test on HCT-15 colon it was over 100 µM; in the test on HT29 colon, over 100 µM; in the test with RXF 393 renal, over 100 µM; in the test on SK-OV-3 ovarian it was over 100 µM; in the test on UACC-62 melanoma, 1.91 µM.

On to `COC(=O)C1=C(C)NC(C)=C(C(=O)OC)C1/C=C(Cl)/C=C/c1ccccc1`, for which the GI50 in the test on A498 renal is 16.8 µM; in the test with HCT-15 colon it was 29.7 µM; with HT29 colon, 18.9 µM; in the test on RXF 393 renal, 18.4 µM; in the test with SK-OV-3 ovarian, 28.2 µM; in the test on UACC-62 melanoma it was 16.1 µM. The TGI in the test on A498 renal was 36 µM; in the test on HCT-15 colon, over 100 µM; in the test on HT29 colon, 44.9 µM; in the test on RXF 393 renal, 46.6 µM; in the test with SK-OV-3 ovarian it was over 100 µM; in the test on UACC-62 melanoma it was 30.8 µM.

As to `C=C1CC/C=C(\C)C(=O)C[C@@H]2[C@@H]1CC2(C)C`, the TGI in the test on A498 renal was over 30 µM; with HCT-15 colon it was 3.23 µM; in the test on HT29 colon, over 32.7 µM; in the test on RXF 393 renal, 4.33 µM; with SK-OV-3 ovarian, over 57.5 µM; in the test on UACC-62 melanoma it was 24.2 µM.
